Key:
Test in all cases: growth inhibition of cancer cells (FIG. 3)
Type in all cases: cell-based
[1] = system: PC3 cancer stem cells
[2] = system: HCT116 colon carcinoma stem cells
[3] = system: FaDu cancer stem cells
[4] = system: MDA-MB-468 cancer stem cells
[5] = system: HEP2 cancer cells
[6] = system: A549 lung cancer stem cells
[7] = system: HELA cancer stem cells

For `CCCCOc1ccc(Oc2ccc(C=O)cc2)cc1` [YS2, 4-(4-butoxyphenoxy)benzaldehyde], the growth inhibition percentage [1] was “about 90%”, the “performance compared to doxorubicin (DOX)” value ([2]; HCT 116 cell line, versus commercially available doxorubicin) was “comparable to or outperformed DOX” and the growth inhibition percentage ([2]; HCT116 colon carcinoma stem cells) was “about 90%”. For the same compound, the growth inhibition percentage [3] was “about 90%”, the growth inhibition percentage [4] was “about 95%” and the growth inhibition percentage ([5]; HEP2 cancer cells) was “about 70%”. The “performance compared to doxorubicin (DOX)” value ([5]; HEP cell line, versus commercially available doxorubicin) was “comparable to or outperformed DOX”, the “performance compared to doxorubicin (DOX)” value ([6]; A549 cell line, versus commercially available doxorubicin) was “comparable to or outperformed DOX” and the growth inhibition percentage ([6]; A549 lung cancer stem cells) was “about 90%”. The growth inhibition percentage [7] was “about 80%”.
